How the values were obtained:
ER-α in MCF-7 cells = target: T1, ER-α in MCF-7 cells (Homo sapiens, UniProt P03372); assay: Breast cancer cell ER-α in cell western assay (SP1); format: cell-based; parameters: endogenous in cells; host or cells: MCF-7; settings: 4 or 24 hr post compound addition; for Emax: MCF7, SP1 antibody, read-out: ER-α In Cell Western Assay (SP1) Max Response; for DC50: SP1 antibody, read-out: ER-α In Cell Western Assay (SP1) IC50
T1 sequence (P03372 1-595): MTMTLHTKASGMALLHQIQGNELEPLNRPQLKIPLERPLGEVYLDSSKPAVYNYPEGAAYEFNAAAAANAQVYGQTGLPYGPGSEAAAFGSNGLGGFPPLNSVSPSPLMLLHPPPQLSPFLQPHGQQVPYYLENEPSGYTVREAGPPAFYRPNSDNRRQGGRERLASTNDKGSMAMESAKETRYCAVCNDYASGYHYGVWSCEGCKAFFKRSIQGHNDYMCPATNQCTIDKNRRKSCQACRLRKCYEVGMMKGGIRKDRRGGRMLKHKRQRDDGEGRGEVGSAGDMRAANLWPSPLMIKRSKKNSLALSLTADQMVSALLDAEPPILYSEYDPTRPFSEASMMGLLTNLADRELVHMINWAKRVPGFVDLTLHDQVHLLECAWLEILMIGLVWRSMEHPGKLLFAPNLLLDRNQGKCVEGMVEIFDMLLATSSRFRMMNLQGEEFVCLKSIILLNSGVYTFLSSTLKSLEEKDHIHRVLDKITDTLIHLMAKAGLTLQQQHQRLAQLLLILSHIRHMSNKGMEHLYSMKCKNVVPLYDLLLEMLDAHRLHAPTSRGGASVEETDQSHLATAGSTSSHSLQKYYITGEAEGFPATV
In short: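 ER-α protein levels were measured in MCF-7 cells after 4 or 24 hr compound exposure (final 0.3–0.000003 μM) in RPMI containing 10% charcoal-stripped FBS.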

MCF-7 cells = assay: Breast cancer cell viability assay (CellTiter-Glo, 5 days); format: cell-based; settings: 5 days' compound exposure; for IC50: Homo sapiens, MCF7, 120 h
In short: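 MCF-7 cells, 320 per well in RPMI with 10% FBS and 20 mM HEPES, adhered overnight, then exposed 5 days to an eleven-point semilog dilution (final 0.3-0.000003 μM). CellTiter-Glo luminescence read; % viability = (sample − cell-free background)/(untreated − background) × 100.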

Compound | Emax (ER-α in MCF-7 cells) [%] | DC50 (ER-α in MCF-7 cells) [µM] | MCF7 Viability Assay Max Response (MCF-7 cells) | IC50 (MCF-7 cells) [µM]
CC/C(=C(/c1ccc(/C=C/C(=O)O)cc1)c1ccc2[nH]ncc2c1)c1cc(C)sc1C [Compound 274, (E)-3-(4-((E)-2-(2,5-Dimethylthiophen-3-yl)-1-(1H-indazol-5-yl)but-1-en-1-yl)phenyl)acrylic acid] | ≥ 40 | ≤ 0.1 | ++ (++ = a single % value ≧ 40%) | ≤ 0.1
CC/C(=C(/c1ccc(/C=C/c2noc(=O)[nH]2)cc1)c1ccc2[nH]ncc2c1)c1ccccc1 [Compound 435, 3-((E)-4-((E)-1-(1H-Indazol-5-yl)-2-phenylbut-1-en-1-yl)styryl)-1,2,4-oxadiazol-5(4H)-one] | ≥ 40 | ≤ 0.1 | ++ (++ = a single % value ≧ 40%) | ≤ 0.1
CC/C(=C(/c1ccc(-c2cc(O)no2)cc1)c1ccc2[nH]ncc2c1)c1ccc(F)cc1Cl [Compound 333, (E)-5-(4-(2-(2-Chloro-4-fluorophenyl)-1-(1H-indazol-5-yl)but-1-en-1-yl)phenyl)isoxazol-3-ol] | ≥ 40 | ≤ 0.1 | ++ (++ = a single % value ≧ 40%) | ≤ 0.1
CC/C(=C(/c1ccc(/C=C/C(N)=O)cc1)c1ccc2scnc2c1)c1ccccc1 [Compound 426, (E)-3-(4-((E)-1-(Benzo[d]thiazol-5-yl)-2-phenylbut-1-en-1-yl)phenyl)acrylamide] | ≥ 40 | ≤ 0.1 | ++ (++ = a single % value ≧ 40%) | ≤ 0.1
CC/C(=C(/c1ccc(/C=C/C(=O)O)cc1)c1ccc(O)nc1)c1ccccc1 [Compound 152, (E)-3-(4-((E)-1-(6-Hydroxypyridin-3-yl)-2-phenylbut-1-en-1-yl)phenyl)acrylic acid] | ≥ 40 | – | + (+ = a single % value < 40%) | > 0.1
CC/C(=C(/c1ccc(/C=C/C(=O)O)cc1)c1ccc2sc(C)nc2c1)c1ccccc1 [Compound 159, (E)-3-(4-((E)-1-(2-Methylbenzo[d]thiazol-5-yl)-2-phenylbut-1-en-1-yl)phenyl)acrylic acid] | ≥ 40 | > 0.1 | ++ (++ = a single % value ≧ 40%) | > 0.1
CC/C(=C(/c1ccc(/C=C/C(=O)O)cc1)c1ccc2[nH]ncc2c1)c1ccc(OCCCOC)cc1 [Compound 340, (E)-3-(4-((E)-1-(1H-Indazol-5-yl)-2-(4-(3-methoxypropoxy)phenyl)but-1-en-1-yl)phenyl)acrylic acid] | ≥ 40 | ≤ 0.1 | ++ (++ = a single % value ≧ 40%) | ≤ 0.1
CC/C(=C(/c1ccc(/C=C/C(=O)O)cc1)c1coc2c(O)cccc12)c1ccc(F)cc1Cl [Compound 450, (E)-3-(4-((E)-2-(2-Chloro-4-fluorophenyl)-1-(7-hydroxybenzofuran-3-yl)but-1-en-1-yl)phenyl)acrylic acid] | ≥ 40 | ≤ 0.1 | ++ (++ = a single % value ≧ 40%) | ≤ 0.1
CC/C(=C(/c1ccc(/C=C/C(=O)O)cc1)c1ccc2c(cnn2C(=O)C(C)(C)C)c1)c1ccc(F)cc1Cl [Compound 405, (E)-3-(4-((E)-2-(2-Chloro-4-fluorophenyl)-1-(1-pivaloyl-1H-indazol-5-yl)but-1-en-1-yl)phenyl)acrylic acid] | ≥ 40 | ≤ 0.1 | ++ (++ = a single % value ≧ 40%) | ≤ 0.1
CC/C(=C(/c1ccc(/C=C/C(=O)O)cc1)c1ccc2[nH]ncc2c1F)c1cscc1C [Compound 242, (E)-3-(4-((E)-1-(4-Fluoro-1H-indazol-5-yl)-2-(4-methylthiophen-3-yl)but-1-en-1-yl)phenyl)acrylic acid] | ≥ 40 | ≤ 0.1 | ++ (++ = a single % value ≧ 40%) | ≤ 0.1
CC/C(=C(/c1ccc(/C=C/C(=O)O)nc1)c1ccc2[nH]ncc2c1)c1ccccc1 [Compound 189, (E)-3-(5-((Z)-1-(1H-Indazol-5-yl)-2-phenylbut-1-en-1-yl)pyridin-2-yl)acrylic acid] | ≥ 40 | – | ++ (++ = a single % value ≧ 40%) | > 0.1
CC/C(=C(/c1ccc(/C=C/C(=O)O)cc1)c1ccc2[nH]ncc2c1)c1cccc(-c2cscn2)c1 [Compound 392, (E)-3-(4-((E)-1-(1H-Indazol-5-yl)-2-(3-(thiazol-4-yl)phenyl)but-1-en-1-yl)phenyl)acrylic acid] | ≥ 40 | ≤ 0.1 | ++ (++ = a single % value ≧ 40%) | ≤ 0.1
CC/C(=C(/c1ccc(/C=C/C(=O)O)cc1)c1ccc2[nH]ncc2c1)c1ccncc1F [Compound 231, (E)-3-(4-((E)-2-(3-Fluoropyridin-4-yl)-1-(1H-indazol-5-yl)but-1-en-1-yl)phenyl)acrylic acid] | ≥ 40 | ≤ 0.1 | ++ (++ = a single % value ≧ 40%) | ≤ 0.1
CC/C(=C(/c1ccc(/C=C/C(=O)O)cc1)c1ccc2[nH]ncc2c1)c1ccc2cn[nH]c2c1 [Compound 251, (E)-3-(4-((E)-1-(1H-Indazol-5-yl)-2-(1H-indazol-6-yl)but-1-en-1-yl)phenyl)acrylic acid] | ≥ 40 | > 0.1 | ++ (++ = a single % value ≧ 40%) | > 0.1
CC/C(=C(/c1ccc(/C=C/C(=O)O)cc1)c1ccc2[nH]ccc2c1)c1ccccc1 [Compound 64, (E)-3-(4-((E)-1-(1H-Indol-5-yl)-2-phenylbut-1-en-1-yl)phenyl)acrylic acid] | ≥ 40 | – | ++ (++ = a single % value ≧ 40%) | ≤ 0.1
CC/C(=C(/c1ccc(/C=C/C(=O)O)cc1)c1ccc2[nH]ncc2c1)c1ccc2sccc2c1 [Compound 272, (E)-3-(4-((E)-2-(Benzo[b]thiophen-5-yl)-1-(1H-indazol-5-yl)but-1-en-1-yl)phenyl)acrylic acid] | ≥ 40 | ≤ 0.1 | ++ (++ = a single % value ≧ 40%) | ≤ 0.1
CC/C(=C(/c1ccc(/C=C/C(=O)O)cc1)c1coc2c(OC)cccc12)c1ccc(F)cc1Cl [Compound 164, (E)-3-(4-((E)-2-(2-Chloro-4-fluorophenyl)-1-(7-methoxybenzofuran-3-yl)but-1-en-1-yl)phenyl)acrylic acid] | ≥ 40 | ≤ 0.1 | ++ (++ = a single % value ≧ 40%) | ≤ 0.1
CC/C(=C(/c1ccc(/C=C/C(=O)NS(=O)(=O)c2ccncc2)cc1)c1ccc2[nH]ncc2c1)c1ccc(F)cc1Cl [Compound 434, (E)-3-(4-((E)-2-(2-Chloro-4-fluorophenyl)-1-(1H-indazol-5-yl)but-1-en-1-yl)phenyl)-N-(pyridin-4-ylsulfonyl)acrylamide] | ≥ 40 | ≤ 0.1 | ++ (++ = a single % value ≧ 40%) | ≤ 0.1
CC/C(=C(/c1ccc(/C=C/C(=O)O)cc1)c1ccc2[nH]ncc2c1)c1ccncc1Cl [Compound 204, (E)-3-(4-((E)-2-(3-Chloropyridin-4-yl)-1-(1H-indazol-5-yl)but-1-en-1-yl)phenyl)acrylic acid] | ≥ 40 | – | ++ (++ = a single % value ≧ 40%) | ≤ 0.1

— US9399646B2 (Genentech, Inc., priority 2010, dated 2016)
